Where a name gives a salt, the structure may show the parent alone. Read-outs that look alike come from different tables or passages of the source.
Tests used:
[1] = Single dose oral pharmacokinetic studies in male Wistar rats; format: in vivo, rat; details: fasted, suspension in 0.25% sodium CMC; for half-life: read-out: t½ (converted)
Protocol: Single Dose Oral Pharmacokinetic Studies
Male Wistar rats (220-250 gm) were used in the experiments. The animals were maintained under standard laboratory conditions and had free access to feed and water ad libitum. Before experimentation animals were fasted overnight (˜15 h) during which they had free access to water ad libitum.
An amount equivalent to 30 mg of drug was weighed accurately and transferred into a clean mortar and triturated to obtain a fine powder. To this 0.5 ml of 0.25% sodium carboxy methyl cellulose (sodium CMC) was added to obtain a paste. To the obtained paste remaining 2.5 ml of sodium CMC was added to make up the volume to 3 ml. Based on the animal weight appropriate volume (body weight×3) of the prepared suspension was administered through oral gavage.
After dosing, at designated time points (0.5, 1, 2, 3, 5, 8, 12 and 24 h) 200 μl of blood was collected from retro orbital plexus into 0.5 ml eppendorff tubes containing EDTA (10 μl of 200 mg/ml solution in Milli Q water). Blood was centrifuged at 12,800 rpm for 5 min and obtained plasma and stored at −20° C. till further analysis.
100μl plasma was transferred into a clean and dry centrifuge tube. To this internal standard (10 μl of 100 μg/ml) was added and extracted with 2 ml of extraction recovery solvent. The contents were vortexed for 2 min, followed by centrifugation for 10 min at 2800 rpm. Clear organic layer (2×0.75 ml) was separated and dried under nitrogen gas at 50° C. The residue was reconstituted with 150 μl of mobile phase and vortexed for 20 sec, from this 50 μl was injected onto HPLC column.
Pharmacokinetic parameters were calculated by non-compartmental model analysis. The peak plasma concentration (Cmax) and the corresponding time (Tmax)were directly obtained from the raw data. The area under the plasma concentration versus time curve up to the last quantifiable time point, AUC(0−t) was obtained by the linear and log-linear trapezoidal summation. The AUC(0−t) extrapolated to infinity (i.e., AUC(0−∞)) by adding the quotient of Clast/Kel, where Clast represents the last measurable time concentration and Kel represents the apparent terminal rate constant. Kel was calculated by the linear regression of the log-transformed concentrations of the drug in the terminal phase. The half-life of the terminal elimination phase was obtained using the relationship t½=0.693/Kel.

[2] = male, Wistar, rat, plasma, po, 30 mg/kg
[3] = male, Wistar, rat, plasma, po, 30 mg/kg, read-out: AUC (0-t)
[4] = male, Wistar, rat, plasma, po, 30 mg/kg, read-out: Cmax
[5] = male, Wistar, rat, plasma, po, 30 mg/kg, read-out: Tmax

CCCc1nn(C)c2c(=O)n(CCOc3ccc(C[C@H](OCC)C(=O)O)cc3)c(CC)nc12 (as salt: salt) [Example 36, (−)-3-[4-[2-(1-Methyl-5-ethyl-7-oxo-3-propyl-6,7-dihydro-1H-pyrazolo[4,3-d]pyrimidin-6-yl)ethoxy]phenyl]-2-ethoxypropionic acid arginine salt]
melting point: 235 °C

CCO[C@@H](Cc1ccc(OCCn2c(CC)nc(-c3ccccc3)cc2=O)cc1)C(=O)[O-].[K+] [Example 46, (−)2-Ethoxy-3-[4-[2-[2-ethyl-6-oxo-4-phenyl-1,6-dihydropyrimidin-1-yl]ethoxy]phenyl]propanoic acid potassium salt]
Kel [1]: 0.32 h⁻¹
AUC(0-inf) [1, 2]: 62.9 µg·h/mL
AUC(0-t) [1, 3]: 61.2 µg·h/mL
Cmax [1, 4]: 17.7 µg/mL
Tmax [1, 5]: 1.33 h
half-life [1, 2]: 2.19 h

CCCc1nn(C)c2c(=O)n(CCOc3ccc(C[C@H](OCC)C(=O)[O-])cc3)c(CC)nc12.[Li+] (stereo in doubt)
melting point: 215 to 218 °C

CCO[C@@H](Cc1ccc(OCCn2c(CC)nc(-c3ccccc3)cc2=O)cc1)C(=O)O [Example 48, (−)2-Ethoxy-3-[4-[2-[2-ethyl-6-oxo-4-phenyl-1,6-dihydropyrimidin-1-yl]ethoxy]phenyl]propanoic acid L-arginine salt]
Kel [1]: 0.29 h⁻¹
AUC(0-inf) [1, 2]: 92.6 µg·h/mL
AUC(0-t) [1, 3]: 90.1 µg·h/mL
Cmax [1, 4]: 50.4 µg/mL
Tmax [1, 5]: 0.5 h
half-life [1, 2]: 2.18 h

CCO[C@@H](Cc1ccc(OCCn2c(CC)nc3ccccc3c2=O)cc1)C(=O)O [Example 7, (−)-3-[4-[2-(2-Ethyl-4-oxo-3,4-dihydroquinazolin-3-yl)ethoxy]phenyl]-2-ethoxypropanoic acid N-methyl glucamine salt]
AUC (0-∞) [1]: 51.43 µg·h/mL
AUC(0-t) [1]: 51.65 µg·h/mL
Cmax [1]: 40.25 µg/mL
Kel [1]: 0.38 h⁻¹
Tmax [1]: 0.90 h
t½ [1]: 1.91 h

CCCc1nn(C)c2c(=O)n(CCOc3ccc(C[C@H](OCC)C(=O)O)cc3)c(CC)nc12 (as salt: tromethamine) [Example 40, (−)-3-[4-[2-(1-Methyl-5-ethyl-7-oxo-3-propyl-6,7-dihydro-1H-pyrazolo[4,3-d]pyrimidin-6-yl)ethoxy]phenyl]-2-ethoxypropionic acid tromethamine salt]
melting point: 116 to 118 °C

CCCc1nn(C)c2c(=O)n(CCOc3ccc(C[C@H](OCC)C(=O)[O-])cc3)c(CC)nc12.[K+] (stereo in doubt)
melting point: 164 °C

CCO[C@@H](Cc1ccc(OCCn2c(CC)nc3ccccc3c2=O)cc1)C(=O)O (as salt: salt) [Example 4, (−)-3-[4-[2-(2-Ethyl-4-oxo-3,4-dihydroquinazolin-3-yl)ethoxy]phenyl]-2ethoxypropanoic acid lysine salt]
melting point: 152 to 155 °C

CCCc1nn(C)c2c(=O)n(CCOc3ccc(C[C@H](OCC)C(=O)O)cc3)c(CC)nc12 (as salt: salt) [Example 41, (−)-3-[4-[2-(1-Methyl-5-ethyl-7-oxo-3-propyl-6,7-dihydro-1H-pyrazolo[4,3-d]pyrimidin-6-yl)ethoxy]phenyl]-2-ethoxypropionic acid dicyclohexylamine salt]
melting point: 138 to 140 °C

CCO[C@@H](Cc1ccc(OCCn2c(CC)nc(-c3ccccc3)cc2=O)cc1)C(=O)[O-].[Na+] [Example 47, (−)2-Ethoxy-3-[4-[2-[2-ethyl-6-oxo-4-phenyl-1,6-dihydropyrimidin-1-yl]ethoxy]phenyl]propanoic acid sodium salt]
Kel [1]: 0.34 h⁻¹
AUC(0-inf) [1, 2]: 83.3 µg·h/mL
AUC(0-t) [1, 3]: 82.2 µg·h/mL
Cmax [1, 4]: 39.5 µg/mL
Tmax [1, 5]: 0.5 h
half-life [1, 2]: 2.07 h

CCCc1nn(C)c2c(=O)n(CCOc3ccc(C[C@H](OCC)C(=O)O)cc3)c(CC)nc12 (as salt: salt) [Example 44, (−)-3-[4-[2-(1-Methyl-5-ethyl-7-oxo-3-propyl-6,7-dihydro-1H-pyrazolo[4,3-d]pyrimidin-6-yl)ethoxy]phenyl]-2-ethoxypropionic acid metformin salt]
melting point: 118 °C

CCCc1nn(C)c2c(=O)n(CCOc3ccc(C[C@H](OCC)C(=O)O)cc3)c(CC)nc12 [Example 40, (−)-3-[4-[2-(1-Methyl-5-ethyl-7-oxo-3-propyl-6,7-dihydro-1H-pyrazolo[4,3-d]pyrimidin-6-yl)ethoxy]phenyl]-2-ethoxypropionic acid tromethamine salt]
Kel [1]: 0.60 h⁻¹
Tmax [1]: 0.75 h
AUC(0-inf) [1, 2]: 78.5 µg·h/mL
AUC(0-t) [1, 3]: 77.8 µg·h/mL
Cmax [1, 4]: 34.2 µg/mL
half-life [1, 2]: 1.2 h

CCO[C@@H](Cc1ccc(OCCn2c(CC)nc3ccccc3c2=O)cc1)C(=O)O (as salt: salt) [Example 11, (−)-3-[4-[2-(2-Ethyl-4-oxo-3,4-dihydroquinazolin-3-yl)ethoxy]phenyl]-2-ethoxypropanoic acid arginine salt]
melting point: 216 to 220 °C

CCO[C@@H](Cc1ccc(OCCn2c(CC)nc3ccccc3c2=O)cc1)C(=O)O [Example 10, (−)-3-[4-[2-(2-Ethyl-4-oxo-3,4-dihydroquinazolin-3-yl)ethoxy]phenyl]-2-ethoxypropanoic acid magnesium salt]
AUC (0-∞) [1]: 74.07 µg·h/mL
AUC(0-t) [1]: 75.89 µg·h/mL
Cmax [1]: 54.21 µg/mL
Kel [1]: 0.34 h⁻¹
Tmax [1]: 0.50 h
t½ [1]: 2.16 h

CCCc1nn(C)c2c(=O)n(CCOc3ccc(C[C@H](OCC)C(=O)O)cc3)c(C)nc12 (as salt: salt) [Example 24, 3-[4-[2-(1,5-Dimethyl-7-oxo-3-propyl-6,7-dihydro-1H-pyrazolo[4,3-d]pyrimidin-6-yl)ethoxy]phenyl]-2-ethoxypropionic acid aminoguanidine hydrogen carbonate salt]
melting point: 110 to 112 °C

CCO[C@@H](Cc1ccc(OCCn2c(CC)nc3ccccc3c2=O)cc1)C(=O)O [Example 4, (−)-3-[4-[2-(2-Ethyl-4-oxo-3,4-dihydroquinazolin-3-yl)ethoxy]phenyl]-2ethoxypropanoic acid lysine salt]
Kel [1]: 0.31 h⁻¹
AUC(0-inf) [1, 2]: 38.4 µg·h/mL
AUC(0-t) [1, 3]: 40.6 µg·h/mL
Cmax [1, 4]: 38.7 µg/mL
Tmax [1, 5]: 0.5 h
half-life [1, 2]: 1.97 h

CCCc1nn(C)c2c(=O)n(CCOc3ccc(C[C@H](OCC)C(=O)O)cc3)c(CC)nc12 (as salt: salt) [Example 39, (−)-3-[4-[2-(1-Methyl-5-ethyl-7-oxo-3-propyl-6,7-dihydro-1H-pyrazolo[4,3-d]pyrimidin-6-yl)ethoxy]phenyl]-2-ethoxypropionic acid aminoguanidine hydrogen carbonate salt]
melting point: 130 °C

CCCc1nn(C)c2c(=O)n(CCOc3ccc(C[C@H](OCC)C(=O)[O-])cc3)c(CC)nc12.[Na+] [Example 35, (−)-3-[4-[2-(1-Methyl-5-ethyl-7-oxo-3-propyl-6,7-dihydro-1H-pyrazolo[4,3-d]pyrimidin-6-yl)ethoxy]phenyl]-2-ethoxypropionic acid sodium salt]
melting point: 112 to 114 °C

CCO[C@@H](Cc1ccc(OCCn2c(CC)nc3ccccc3c2=O)cc1)C(=O)O (as salt: salt) [Example 7, (−)-3-[4-[2-(2-Ethyl-4-oxo-3,4-dihydroquinazolin-3-yl)ethoxy]phenyl]-2-ethoxypropanoic acid N-methyl glucamine salt]
melting point: 114 to 116 °C

CCO[C@@H](Cc1ccc(OCCn2c(CC)nc3ccccc3c2=O)cc1)C(=O)O (as salt: salt) [Example 10, (−)-3-[4-[2-(2-Ethyl-4-oxo-3,4-dihydroquinazolin-3-yl)ethoxy]phenyl]-2-ethoxypropanoic acid magnesium salt]
melting point: > 250 °C

CCO[C@@H](Cc1ccc(OCCn2c(CC)nc3ccccc3c2=O)cc1)C(=O)[O-].[Li+] (stereo in doubt)
melting point: 245 to 247 °C

From patent US20020169175A1, “Pharmaceutically acceptable salts of heterocyclic compounds” (DR. REDDY'S LABORATORIES LTD., priority 2001, published 2002)
